Measured values published in patent publication US9238631B2, “Radiolabeled amino acids for diagnostic imaging” (PIRAMAL IMAGING SA, priority 2011, dated 2016).

What was measured:
reactive lymph nodes = assay: PET uptake in inflammatory lesions (streptozotocin-induced reactive lymph nodes); format: in vivo, mice; details: dynamic PET 1 h, 3 days after streptozotocin
Protocol: To test the specificity of compounds from the present invention, compound [^18F]-41 was examined in an animal model of reactive lymph nodes in comparison to the clinically commonly used PET tracer FDG. Therefore, female immunocompetent NMRI mice (10 weeks old) were injected with streptozotocin (500 μg/40 μL PBS) in the right hind limb to induce an inflammatory reaction in the right popliteal and additional lymph nodes. PET imaging studies were performed 3 days after Streptozotocin injection. PET images were acquired dynamically for 1 h after injection of approximately 5-10 MBq. After the imaging study, region-of-interest (ROI) analysis was performed in the popliteal, inguinal and iliacal lymph nodes. At least 3 animals were examined per tracer.

xCT (SLC7A11) = molecular target: T1, xCT (SLC7A11) (Homo sapiens, UniProt Q9UPY5); assay: Competition profile indicating uptake via xCT (SLC7A11); format: cell-based; details: co-incubation with 1 mM cold competitors, NCI-H460 cells
T1 construct: NCI-H460 tumor cells were co-incubated with the F-18 labeled tracer and several cold derivatives; endogenous in cells; host or cells: NCI-H460 tumor cells
T1 sequence (Q9UPY5 1-501): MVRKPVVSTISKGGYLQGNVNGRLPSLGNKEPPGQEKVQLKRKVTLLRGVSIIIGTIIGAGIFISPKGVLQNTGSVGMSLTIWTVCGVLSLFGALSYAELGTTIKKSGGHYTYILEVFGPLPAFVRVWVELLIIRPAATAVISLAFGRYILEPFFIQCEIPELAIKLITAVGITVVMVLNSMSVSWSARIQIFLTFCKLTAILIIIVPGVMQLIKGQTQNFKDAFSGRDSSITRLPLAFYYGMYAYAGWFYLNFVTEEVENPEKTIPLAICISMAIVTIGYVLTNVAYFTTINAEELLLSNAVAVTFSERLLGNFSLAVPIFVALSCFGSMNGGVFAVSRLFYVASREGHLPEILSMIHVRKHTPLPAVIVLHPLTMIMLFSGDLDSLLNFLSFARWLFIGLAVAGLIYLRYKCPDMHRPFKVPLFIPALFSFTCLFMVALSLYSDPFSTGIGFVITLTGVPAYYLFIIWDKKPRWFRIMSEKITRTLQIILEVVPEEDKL
T1 sequence (P08195 1-529 partner): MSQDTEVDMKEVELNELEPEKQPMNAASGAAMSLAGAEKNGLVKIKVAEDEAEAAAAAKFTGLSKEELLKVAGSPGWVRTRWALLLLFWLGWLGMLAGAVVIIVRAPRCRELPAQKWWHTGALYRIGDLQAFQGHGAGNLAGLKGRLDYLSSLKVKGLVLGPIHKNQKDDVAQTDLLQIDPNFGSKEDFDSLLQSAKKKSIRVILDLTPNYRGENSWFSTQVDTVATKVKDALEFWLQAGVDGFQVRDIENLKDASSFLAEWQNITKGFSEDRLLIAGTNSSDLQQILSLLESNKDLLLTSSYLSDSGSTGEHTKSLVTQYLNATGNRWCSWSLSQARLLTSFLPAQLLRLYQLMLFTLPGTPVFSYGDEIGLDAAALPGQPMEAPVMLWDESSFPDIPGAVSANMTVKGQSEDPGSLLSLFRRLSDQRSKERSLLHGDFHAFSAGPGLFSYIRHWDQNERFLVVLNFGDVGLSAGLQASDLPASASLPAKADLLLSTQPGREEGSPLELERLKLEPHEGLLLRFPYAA
Protocol: For determination of the responsible uptake mechanism, NCI-H460 tumor cells were co-incubated with the F-18 labeled tracer and several cold derivatives. These derivatives were used at a concentration of 1 mM, which is a large excess compared to the tracer. L-Glutamic acid, L-cystine, Carboxyphenylglycine (CPG) were used as competitors. In addition, also D-Glutamic acid, as well as L-aspartic acid and D-aspartic acid were used in this competition experiments. […] The same experiments were performed using [^18F]-1, [^18F]-4, [^18F]-9, [^18F]-8, [^18F]-25 and [^18F]-22.

NCI-H460 tumor [1] = assay: PET imaging in NCI-H460 tumor bearing nude-rats; format: in vivo; details: PET ROI analysis, 1 h p.i.
Protocol: c) Beside PET-imaging studies in mice, also the imaging properties of [^18F]-12 in rats were examined. NCI-H460 tumor cells were inoculated into the right flank of nude-rats (RH-Foxn1 nu/nu) 8 to 10 days before the PET study. PET images were acquired at 60 min after injection of approximately 10 MBq for 10 minutes. The H460 tumor was nicely visible (0.9% ID/g as determined by ROI analysis). Beside some minor uptake into the liver and kidneys due to the excretion of the compound, no uptake into other non-target tissues was observed.
To test the imaging properties, compounds from the present invention were evaluated in PET imaging studies using tumor bearing rats. NCI-H460 tumor cells were inoculated into the right flank of nude-rats (RH-Foxn1 nu/nu) 8 to 10 days before the PET study. PET images were acquired at 60 min after injection of approximately 10 MBq for 10 minutes. After the imaging study, region-of-interest (ROI) analysis was performed and activity in tumor, liver and kidney was determined. […] High tumor uptake values of >1% […] in this rat model were obtained with various compounds from the present invention. A favorable clearance profile of all compounds enables excellent tumor detection in PET imaging studies in tumor bearing rats.

NCI-H460 tumor [2] = assay: In vivo biodistribution in NCI-H460 tumor bearing mice; details: for T/Blood / T/Muscle: 1 h post injection
Protocol: (§1) To test the pharmacokinetic properties of compounds from the present invention, all F18-labeled compounds were examined by biodistribution studies in NCI-H460 tumor bearing mice. Female NMRI (nu/nu) mice were inoculated with 5×10^6 NCI-H460 tumor cells 8 to 10 days before the biodistribution studies. 185 kBq of activity of the fluorinated compound was injected and at least n=3 mice were used for every time point. After injection of the F18-labeled compound, mice were sacrificed at defined time-points. All organs were removed and radioactivity was determined using a γ-counter.
To compare the tumor uptake and retention of radioactivity of different ^18F-labeled derivatives from the present invention, biodistribution studies were performed in NCI-H460 tumor bearing NMRI (nu/nu) mice as described above.
To compare the kidney clearance of several ^18F-labeled derivatives from the present invention, biodistribution studies were performed in NCI-H460 tumor bearing female NMRI (nu/nu) mice as described above. […] After 2 h p.i., less than 1% ID/g can be found in the kidneys.
For comparison of pancreas uptake and clearance of several ^18F-labeled derivatives from the present invention, biodistribution studies were performed in NCI-H460 tumor bearing NMRI (nu/nu) mice as described above. […] After 2 h p.i., less than 2% ID/g can be found in the pancreas.
as §1, with “and” for “for every time point. After injection of the F18-labeled compound, mice were”, “time-points raning from 15 min pi up to 2 h p.i.” for “time-points.”, “γ-counter. […] High tumor uptake values of >3% ID/g were obtained with various compounds from the present invention.” for “γ-counter.”

[3] = tested on: NCI-H460 (human NSCLC) cells; assay: Cell uptake studies: 30 min uptake in H460 cells; format: cell-based; details: 0.25 MBq tracer, PBS 0.1% BSA
Protocol: For determination of the biological activity, the F18 labeled derivatives were used as tracers in cell uptake experiments. NCI-H460 (human NSCLC) cells, grown adherently in 48 well plates were used for these uptake-experiments. Approximately 100.000 cells were incubated with 0.25 MBq of the tracers for 30 min in PBS-buffer containing 0.1% BSA. After this time, the cell-bound radioactivity was determined using a γ-counter.

[4] = tested on: NCI-H460 (human NSCLC) cells; assay: Time-dependent uptake and blocking of [^18F]-41 in NCI-H460 cells; format: cell-based
Protocol: NCI-H460 (human NSCLC) cells, grown adherently in 48 well plates were used for these experiments. Approximately 100.000 cells were incubated in PBS-buffer containing 0.1% BSA with 0.25 MBq [^18F]-41 for up to 60 minutes. A time-dependent uptake was observed during the 60 min incubation period. Approximately 13% of applied dose was taken up by the cells during the 60 min incubation period (FIG. 6). For the blocking study [^18F]-41 was co-incubated with 1 mM 41 for 30 minutes. After this time, the cell bound radioactivity was determined.

A549 tumor = details: cited from earlier work
H460 cells = assay: Retention of radioactivity in H460 cells (efflux); format: cell-based, human; details: 30 minute efflux period after 30 minutes loading
Protocol: The retention of radioactivity in tumor cells was examined. Therefore. H460 cells were loaded with 0.25 MBq of the respective tracer for 30 minutes in PBS buffer, containing 0.1% BSA. After this uptake, the buffer was removed and the cells were washed with PBS. The cells were then reincubated with new PBS buffer, without radioactivity for up to 30 minutes. The release of activity into the supernatant as well as the retention of activity inside the cells was examined. It was discovered, that only a limited amount of activity was released into the supernatant during the 30 minute efflux period. More than 80% of the activity were retained inside the tumor cells during the 30 minute incubation under these efflux conditions.
In addition, the retention of radioactivity in tumor cells was examined. Therefore. H460 cells were loaded with 0.25 MBq of [^18F]-41 for 30 minutes in PBS buffer, containing 0.1% BSA. After this uptake, the buffer was removed and the cells were washed with PBS. The cells were then reincubated with new PBS buffer without radioactivity for 30 min. The release of activity into the supernatant as well as the retention of activity inside the cells was determined. It was discovered, that only a limited amount of activity was released into the supernatant during the 30 minute efflux period. […]

Kidney (% ID/g at 1 h p.i.) (NCI-H460 tumor [1]) [% ID/g]	Liver (% ID/g at 1 h p.i.) (NCI-H460 tumor [1]) [% ID/g]	Tumor (Max % ID/g at 1 h p.i.) (NCI-H460 tumor [1]) [% ID/g]	Tumor (Mean % ID/g at 1 h p.i.) (NCI-H460 tumor [1]) [% ID/g]	Kidney (% ID/g at 1 h p.i.) (NCI-H460 tumor [2]) [% ID/g]	Liver (% ID/g at 1 h p.i.) (NCI-H460 tumor [2]) [% ID/g]	Pancreas (% ID/g at 1 h p.i.) (NCI-H460 tumor [2]) [% ID/g]	Tumor (% ID/g at 1 h p.i.) (NCI-H460 tumor [2]) [% ID/g]	Urine (% ID at 1 h p.i.) (NCI-H460 tumor [2]) [% ID]	T/Blood (NCI-H460 tumor [2])	T/Muscle (NCI-H460 tumor [2])	SMILES	time-course of activity in the reactive lymph nodes (reactive lymph nodes)	also measured
											OC[C@H]1OC(O)[C@H]([18F])[C@@H](O)[C@@H]1O (stereo partly shown) [FDG, 2-[^18F]fluorodeoxyglucose, reference compound]	remained almost constant	
0.5	0.6	0.9	0.3	1.8 ± 0.6	4.1 ± 0.8	0.63 ± 0.04	1.3 ± 0.5	64.9 ± 4.3	5.1	32.3	N[C@@H](CC(Cc1ccc(O[C@H]2C[C@@H]([18F])C2)cc1)C(=O)O)C(=O)O (stereo partly drawn) [[^18F]-22, 4-{4-[(cis-3-[^18F]Fluorocyclobutyl)oxy]benzyl}-L-glutamic acid]		competition profile / uptake mechanism of the tracer (xCT (SLC7A11)): identical competition profile; 30 min uptake into H460 cells [%/100.000 cells] [3]: 4.2 ± 0.1 %/100.000 cells
											N[C@@H](CCC(Cc1ccc(OCF)cc1)C(=O)O)C(=O)O (stereo partly drawn) [Example 41, (2S)-2-amino-5-[4-(fluoromethoxy)benzyl]hexanedioic acid]		blocking of [^18F]-41 uptake ([4]; co-incubation with 1 mM 41, 30 minutes): strong competitor
											N[C@@H](CC(CCC[18F])C(=O)O)C(=O)O (stereo partly shown) [4-(3-[^18F]fluoropropyl)glutamic acid]		Kidney uptake (A549 tumor; 30 min post injection): 6.4 % ID/g; pancreas uptake (A549 tumor; 30 min post injection): 8.5 % ID/g; tumor uptake (A549 tumor; 1 h post injection): 1.6 % ID/g
0.5	0.4	3.7	1.6	3.1 ± 0.4	0.3 ± 0.1	1.0 ± 0.5	6.8 ± 1.3	69.3 ± 14.5	26.3	90.6	N[C@@H](CCC(Cc1ccc(OC[18F])cc1)C(=O)O)C(=O)O (stereo partly drawn) [[^18F]-41, (2S)-2-amino-5-[4-(fluoromethoxy)benzyl]hexanedioic acid]	wash-out of radioactivity	tumor uptake and retention (summary statement) (NCI-H460 tumor [2]; mouse, in vivo): high tumor uptake and retention; initial uptake in the inflammatory lesions (reactive lymph nodes): reduced compared to FDG; activity retained inside the tumor cells (H460 cells): More than 80%; uptake of applied dose by the cells ([4]; 0.25 MBq, 60 min incubation, approx. 100.000 cells): Approximately 13 % of applied dose
